# US7115600B2, “Histamine-3 receptor modulators” (Pfizer Inc., priority 2004, dated 2006)
# pKi: −log10 of the molar value.
# Biological target: T1, rat histamine H3 receptors (Rattus norvegicus, UniProt Q9QYN8)
# T1 construct: Frozen rat frontal brain or frozen human post-mortem frontal brain is homogenized; from tissue; host or cells: rat frontal brain membranes
# Assay: Rat Histamine H3 Receptor Binding
# Settings: frozen rat frontal brain membranes; radioligand 1 nM 3H-N-methyl-histamine; 1 hour incubation; read-out: rH3 Ki
# T1 sequence (Q9QYN8 whole entry): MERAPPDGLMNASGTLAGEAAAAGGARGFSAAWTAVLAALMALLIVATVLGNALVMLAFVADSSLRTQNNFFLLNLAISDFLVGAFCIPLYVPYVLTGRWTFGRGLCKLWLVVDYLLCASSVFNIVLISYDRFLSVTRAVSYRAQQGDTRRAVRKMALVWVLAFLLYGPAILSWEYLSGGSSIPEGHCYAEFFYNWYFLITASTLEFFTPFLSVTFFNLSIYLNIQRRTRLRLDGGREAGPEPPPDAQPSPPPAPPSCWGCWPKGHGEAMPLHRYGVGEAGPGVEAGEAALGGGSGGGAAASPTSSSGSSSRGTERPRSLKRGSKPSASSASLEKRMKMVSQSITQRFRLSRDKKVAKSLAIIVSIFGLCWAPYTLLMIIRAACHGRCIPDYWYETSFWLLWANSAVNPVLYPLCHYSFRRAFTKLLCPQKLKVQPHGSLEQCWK
row,SMILES,pKi
1,"Cc1ccc(C)n1-c1ccc(OC[C@H]2C[C@@H](c3ccc(CN4CCCC4)cc3)C2)nn1 [Example 90, cis-3-(2,5-Dimethyl-pyrrol-1-yl)-6-{[3-(4-pyrrolidin-1-ylmethyl-phenyl)-cyclobutylmethyl]oxy}-pyridazine]",7.47
2,"COc1ccc(-c2cnc(OC[C@H]3C[C@@H](c4ccc(CN5CCCC5)cc4)C3)nc2)cc1 [Example 92, cis-5-(4-Methoxy-phenyl)-2-[3-(4-pyrrolidin-1-ylmethyl-phenyl)-cyclobutylmethoxy]-pyrimidine]",6.93
3,"Cc1cnc(OC[C@H]2C[C@@H](c3ccc(CN4CCCC4)cc3)C2)nc1C1CCNCC1 [Example 81, cis-5-Methyl-4-piperidin-4-yl-2-[3-(4-pyrrolidin-1-ylmethyl-phenyl)-cyclobutylmethoxy]-pyrimidine]",7.24
4,"C[C@@H]1CN(C[C@H]2C[C@H](c3ccc(CN4CCCC4)cc3)C2)C[C@H](C)O1 [Example 126, trans-(2R,6S)-2,6-Dimethyl-4-[3-(4-pyrrolidin-1-ylmethyl-phenyl)-cyclobutylmethyl]-morpholine]",8.72
5,"Cc1cc(C2CCNCC2)nc(OC[C@H]2C[C@@H](c3ccc(CN4CCCC4)cc3)C2)n1 [Example 77, cis-4-Methyl-6-piperidin-4-yl-2-[3-(4-pyrrolidin-1-ylmethyl-phenyl)-cyclobutylmethoxy]-pyrimidine]",7.37
6,"N#Cc1cccc(COCC2CC(c3ccc(CN4CCCC4)cc3)C2)c1 (centres unmarked) [Example 5, 3-[3-(4-Pyrrolidin-1-ylmethyl-phenyl)-cyclobutylmethoxymethyl]-benzonitrile]",7.05
7,"c1ccc(COCC2CC(c3ccc(CN4CCCC4)cc3)C2)cc1 (centres unmarked) [Example 2, 1-[4-(3-Benzyloxymethyl-cyclobutyl)-benzyl]-pyrrolidine]",7.01
8,"c1cc([C@H]2C[C@@H](CN3CCCCC3)C2)ccc1CN1CCCC1 [Example 104, cis-1-[3-(4-Pyrrolidin-1-ylmethyl-phenyl)-cyclobutylmethyl]-piperidine]",8.56

# Now from value to compound:
row,pKi,SMILES
1,7.03,"Cc1cc(C)nc(OC[C@H]2C[C@H](c3ccc(CN4CCCC4)cc3)C2)n1 [Example 55, trans-4,6-Dimethyl-2-[3-(4-pyrrolidin-1-ylmethyl-phenyl)-cyclobutylmethoxy]-pyrimidine]"
2,8.57,"CN(Cc1cccnc1)C[C@H]1C[C@H](c2ccc(CN3CCCC3)cc2)C1 [Example 122, trans-Methyl-pyridin-3-ylmethyl-[3-(4-pyrrolidin-1-ylmethyl-phenyl)-cyclobutylmethyl]-amine]"
3,7.64,"Cc1ccc(S(=O)(=O)OC[C@H]2C[C@@H](c3ccc(CN4CCCC4)cc3)C2)cc1 [Example 47, cis-Toluene-4-sulfonic acid 3-(4-pyrrolidin-1-ylmethyl-phenyl)-cyclobutylmethyl ester]"
4,7.00,"N#Cc1ccc(COCC2CC(c3ccc(CN4CCCC4)cc3)C2)cc1 (centres unmarked) [Example 7, 4-[3-(4-Pyrrolidin-1-ylmethyl-phenyl)-cyclobutylmethoxymethyl]-benzonitrile]"
5,8.27,"c1ccc(C2CCCN2C[C@H]2C[C@@H](c3ccc(CN4CCCC4)cc3)C2)nc1 (relative stereo) [Example 105, cis-2-{1-[3-(4-Pyrrolidin-1-ylmethyl-phenyl)-cyclobutylmethyl]-pyrrolidin-2-yl}-pyridine]"
6,8.14,"c1cc(C2CCNC2)nc(OC[C@H]2C[C@@H](c3ccc(CN4CCCC4)cc3)C2)n1 (relative stereo) [Example 65, cis-4-Pyrrolidin-3-yl-2-[3-(4-pyrrolidin-1-ylmethyl-phenyl)-cyclobutylmethoxy]-pyrimidine]"
